According to patent publication US20110300234A1, “Methods of Treating Tumor Cells Using RHCC Protein, Fragment or Variant” (priority 2008, published 2011):
No end group written: not given here.

Columns and labels:
[1] = system: ACHN renal adenocarcinoma cell line; test: Fluorometric microculture cytotoxicity assay (FMCA); type: cell-based, human; conditions: FMCA 72 hr, cisplatin concentration, read-out: IC50 (95% confidence interval)
Experimental: (§1) FaDu is grown in DMEM and 10% heat-inactivated FBS, 0.1 mM MEM non-essential amino acids, 1.2 mM sodium pyruvate, 24 mM HEPES, with penicillin and streptomycin. MDA 231, a breast cancer cell line, RPMI 8226, a myeloma cell line, its resistant sub-line 8226/Dox40, NCI-H69, a small lung cancer cell line, its resistant sub-line H69AR, ACHN, a primary resistant renal adenocarcinoma, the ovarian carcinoma cell line A2780, and its resistant sub-line, A2780-Cis, are all grown in RPMI-1640 with 10% heat-inactivated FCS, 2 mM glutamine, penicillin and streptomycin. hTERT-RPE1 a normal epithelial telomerase immortalized line is grown in DMEM nutrient mixture F-12 Ham with 10% heat-inactivated FCS, 2 mM glutamine, penicillin and streptomycin. Tumor cells obtained from 3 ovarian carcinoma patients (OC1-OC3) after ethical approval (Uppsala University ethical committee) are isolated by collagenase dispersion and Percoll density gradient centrifugation (GE Healthcare Life Sciences, Uppsala, Sweden) (see Csoka et al, Gynecol. Oncol., 54(2):163-70 (1994)). […] For experiments, frozen cells are thawed, washed twice and kept in RPMI 1640.
(§2) Microtitre plates (Nunc, Roskilde, Denmark) are prepared with 20 μl/well of drug solution 10 times the desired concentration. To evaluate the cytotoxic activity, the drug plates are seeded with 2×10^4 cells/180 μl/well. A column without drugs serves as a control, and a column with medium serves as a blank FMCA is based on measurements of fluorescence generated from hydrolysis of fluorescein diacetate (FDA) to fluorescein by cells with intact plasma membrane (see Larsson et al, Int. J. Cancer, 50(2):177-85 (1992)). The plates are incubated at 37° C. for 72 hr, washed in PBS, whereafter FDA (dissolved in PBS, 10 μg/ml) is added at 100 μl/well. Plates are then incubated for 50 min, and fluorescence/well is measured at 538 nm in a scanning fluorometer (Fluoroscan II, Labsystems Oy, Helsinki, Finland). Fluorescence is proportional to the number of viable cells/well. Quality criteria for successful analysis includes a fluorescence signal in control wells of more than 5 times mean blank value and a mean coefficient of variation in control wells of less than 30%. Experiments were repeated 3 times.
(§3) FMCA data is processed by GraphPad Prism (GraphPad Software, Inc. San Diego, Calif.) with non-linear regression to a standard sigmoidal dose-response model. Zero and 100% cell survival are set as the maximum effect and the baseline, and IC50 (inhibitory concentration 50%) is estimated. For drugs not resulting in 50% reduction of cell survival, the IC50 was set to>the highest concentration tested.

[2] = system: A2780cis resistant ovarian carcinoma sub-line; test: as above; type: cell-based, human; conditions: FMCA 72 hr, highest concentration tested 10 μM, read-out: IC50 (95% confidence interval)
Experimental: as §1, §2, §3

[3] = system: A2780 ovarian carcinoma cell line; test: as above; type: cell-based, human; conditions: A2780, FMCA 72 hr, highest concentration tested 10 μM; read-out: IC50 (95% confidence interval)
Experimental: as §1, §2, §3

[4] = system: H69AR resistant small-cell lung cancer sub-line; test: as above; type: cell-based, human; conditions: FMCA 72 hr, cisplatin concentration, read-out: IC50 (95% confidence interval)
Experimental: as §1, §2, §3

[5] = system: 8226/dox40 resistant myeloma sub-line; test: as above; type: cell-based, human; conditions: 8226/dox40, FMCA 72 hr, cisplatin concentration; read-out: IC50 (95% confidence interval)
Experimental: as §1, §2, §3

[6] = system: FaDu head and neck squamous cell carcinoma cell line; test: as above; type: cell-based, human; conditions: FMCA 72 hr, cisplatin concentration, read-out: IC50 (95% confidence interval)
Experimental: as §1, §2, §3

[7] = system: RPMI 8226/S myeloma cell line; test: as above; type: cell-based, human; conditions: FMCA 72 hr, cisplatin concentration, read-out: IC50 (95% confidence interval)
Experimental: as §1, §2, §3

[8] = system: MDA 231 breast cancer cell line; test: as above; type: cell-based, human; conditions: MDA 231, FMCA 72 hr, cisplatin concentration; read-out: IC50 (95% confidence interval)
Experimental: as §1, §2, §3

[9] = system: NCI-H69 small-cell lung cancer cell line; test: as above; type: cell-based, human; conditions: NCI-H69, FMCA 72 hr, highest concentration tested 10 μM; read-out: IC50 (95% confidence interval)
Experimental: as §1, §2, §3

[10] = system: h-TERT-RPE1 normal epithelial telomerase immortalized cell line; test: as above; type: cell-based, human; conditions: h-TERT-RPE1, FMCA 72 hr, highest concentration tested 10 μM; read-out: IC50 (95% confidence interval)
Experimental: Microtitre plates (Nunc, Roskilde, Denmark) are prepared with 20 μl/well of drug solution 10 times the desired concentration. […] Fluorescence is proportional to the number of viable cells/well. Quality criteria for successful analysis includes a fluorescence signal in control wells of more than 5 times mean blank value and a mean coefficient of variation in control wells of less than 30%. Experiments were repeated 3 times.

[11] = system: FaDu-cells s.c. in SCID-mice; test: In vivo tumor reduction assay; design: species or system mouse
From the text: Mice are palpated and weighed 3 times/week, and euthanized if the tumor diameter exceeded 10 mm or if weight decreased below 80% of starting weight, according to ethical guidelines.

[12] = background statement; cited from earlier work
[13] = system: IFNγ-secreting splenocytes of Balb/c-mice; test: IFN-γ EliSpot assay of splenocytes after RHCC injection; conditions: 7 days after i.v. 0.4 or 0.2 mg RHCC
[14] = system: RHCC-specific antibodies in Balb/c-mice; test: ELISA of antibody response to RHCC in sera; type: in vivo, mouse; conditions: 14 days after i.v. 0.4 or 0.2 mg RHCC
Experimental: The antibody response to RHCC in sera from Balb/c-mice collected 14 days after i.v. injection of 0.4 or 0.2 mg RHCC (2 mice/group), or 0.1 M NaCl (one mouse), is measured by ELISA. Microtitre plates (BD Biosciences, San Diego, Calif., USA) are coated with 5 μg/ml RHCC in 0.1 M carbonate-buffer pH 9.6 per well o.n. at 4° C. Plates are blocked in blocking solution (5% milk powder, 0.2% Tween in PBS) for 1 hr at room temperature. Serial dilutions of mouse sera in blocking solution (1:50-1:1350) is added in duplicates to the wells. After 1 hr at room temperature, plates are washed and incubated with secondary alkaline phosphatase (AP) conjugated goat-anti mouse IgG antibody (Sigma-Aldrich, Stockholm, Sweden). Plates are washed and developed with nitrophenylphosphate (pNPP) (Sigma-Aldrich, Stockholm, Sweden) and absorbance is measured at 405 nm in a VersaMax microplate reader (Molecular Devices, Sunnyvale, Calif., USA).

10 cell lines = test: FMCA, statements over the panel of cell lines; type: cell-based, human; conditions: tested concentrations, starting at 3.48 μM, all cell types
Experimental: (§4) FaDu is grown in DMEM and 10% heat-inactivated FBS, 0.1 mM MEM non-essential amino acids, 1.2 mM sodium pyruvate, 24 mM HEPES, with penicillin and streptomycin. […]
as §2, with “To evaluate the cytotoxic activity, the drug plates are seeded with 2×10^4 cells/180 μl/well.” left out, “The plates are incubated at 37° C. for 72 hr, washed in PBS, whereafter FDA (dissolved in PBS, 10 μg/ml) is added at 100 μl/well.” left out, “Experiments were repeated 3 times.” left out

Balb/c mice = test: Tolerability in mice after RHCC injection; conditions: after injection with endotoxin purified RHCC
murine dendritic cells = test: Dendritic cell (DC) maturation assay; type: cell-based, mouse; conditions: 50 μg/ml RHCC, 24 hr, vs unstimulated cells
Experimental: Murine bone marrow-derived dendritic cells (BMDCs) are generated according to Lutz et al, J. Immunol. Methods, 223(1):77-92 (1999), and murine splenic DCs are purified using CD11c (N418) MicroBeads (Miltenyi Biotec, Auburn, Calif., USA) according to the manufacturer. DCs are seeded in 24-well plates (BD Biosciences, San Diego, Calif., USA) at 10^6 cells/ml in R10 medium and mixed with 50 μg/ml RHCC. LPS 1 μg/ml (Sigma-Aldrich, Stockholm, Sweden) is used as positive control. After 24 hr stimulation, DCs are stained with PE-conjugated antibodies to CD40, CD80 and CD86 and FITC-conjugated antibody to MHC Class II I-Ab (BD Biosciences Pharmingen, San Diego, Calif., USA) 30 min at 4° C., washed twice in PBS with 0.1% BSA and analyzed by flow cytometry. IL-12 production is analyzed by ELISA according to the manufacturer (Mabtech, Nacka, Sweden). Plates are coated with 2 μg/ml of anti-IL-12 capture antibody o.n, then after blocking, 100 μl of BMDC culture supernatants are added at dilutions 1:1-1:128 for 2 hr at RT. Plates are thereafter incubated with biotinylated anti-IL-12 antibody 1 hr at room temperature, and the response is visualized as above for ELISA.

[15] = system: primary human tumor cells from ovarian carcinoma patients (OC1-OC3); test: FMCA in primary human tumor cells; type: cell-based; conditions: cell lines and patient samples tested
Experimental: as §4
as §2, with “To evaluate the cytotoxic activity, the drug plates are seeded with 2×10^4 cells/180 μl/well.” left out, “The plates are incubated at 37° C. for 72 hr, washed in PBS, whereafter FDA (dissolved in PBS, 10 μg/ml) is added at 100 μl/well.” left out, “Experiments were repeated 3 times.” left out

With `N.N.[Cl][Pt][Cl]` [Cisplatin, Cis-diammine-dichloroplatinum (II)] the IC50 [1] was 6.9 µM, the IC50 [2] was > 10 µM and the IC50 [3] was > 10 µM. For the same compound, the IC50 [4] was 8.5 µM, the IC50 [5] was > 10 µM and the IC50 [6] was 7.9 µM. For the same compound, the IC50 [7] was 7.44 µM, the IC50 [8] was > 10 µM and the IC50 [9] was > 10 µM. The IC50 [10] was > 10 µM and the alteration in weight ([11]; i.v., during the experiment) was “no significant alteration in weight”.

In the case of “RHCC: Recombinant Right-Handed Coiled-Coil protein tetramer of Tetrabrachion (Staphylothermus marinus), strands of SEQ ID NO:1, purified from endotoxins (GSIINETADDIVYRLTVIIDDRYESLKNLITLRADRLEMIINDNVSTILASI; also: tetramer)”, the “temperature at which stable” value [12] is listed as “over 100 °C”, the “IFNγ-EliSpot T cell response” value [13] is listed as “slight production of specific CD8+ T cells” and the “RHCC-specific antibody response (ELISA)” value [14] is listed as “no significant antibody response”. For the same compound, the “toxicity of RHCC alone” value (10 cell lines) was “nontoxic”, the “signs of illness (viability, weight)” value (Balb/c mice) was “no signs of illness” and the CD40 expression (murine dendritic cells) was “weak increase”. For the same compound, the IL-12 production (murine dendritic cells) was “weak increase”, the “maturation markers CD80, CD86 and MHC Class II” value (murine dendritic cells) was “no increase” and the “tumor reduction, RHCC alone” value ([11]; 0.675 mg RHCC, separate experiment) was “no effect on tumor reduction”. For the same compound, the “cytotoxic effect of RHCC alone” value [15] was “no cytotoxic effect”.
